{"source": "patent US4517181A", "about": "“Mammalian PGRF” (The Salk Institute for Biological Studies, priority 1982, dated 1985)", "key": {"[1]": {"tested_on": "pituitary growth hormone release (serum ir-GH)", "test": "in vivo release of pituitary growth hormone after one single intravenous injection in normal rats", "parameters": "species or system rat", "conditions": "compared with PGRF(1-40) in Table II", "from_the_text": "In addition to the in vitro tests for secretion of growth hormone, in vivo experiments were also run by injecting the synthetic peptide into normal male rats about 200 g. body weight, anesthetized with pentobarbital."}, "[2]": {"tested_on": "cells of rat pituitary glands", "test": "in vitro GH release, rat pituitary cell monolayer culture bioassay (ir GH by radioimmunoassay)", "format": "cell-based", "description": "To determine the effectiveness of the peptides to promote the release of growth hormone, in vitro assays are carried out using synthetic PGRF (1-40) of Example II in side-by-side comparison with equimolar concentrations of the extracted and purified native PGRF (1-40) and of a GRF Reference Standard having a known effectiveness to promote the release of growth hormone from pituitary cells. The GRF Reference standard is described and defined in Brazeau, et al., Endocrinology, Vol. 110, A538(1982) and is an amount of a preparation of rat hypothalamic origin that produces a half-maximal response in terms of GH release in a pituitary cell monolayer bioassay. Cultures are used which include cells of rat pituitary glands removed some four to five days previously. Both cultures of a defined standard medium and cultures which are considered optimal for the secretion of growth hormone are used for the comparative testing, in the general manner described in Brazeau, et al. Regulatory Peptides, 1, 255, 1981. Incubation with the substance to be tested is carried out for 3 to 4 hours, and aliquots of the culture medium are removed and processed to measure their contents in inmunoreactive GH(ir GH) by a well-characterized radioimmunoassay.\nThe in vitro assays described in Example VII are repeated using Native PGRF(1-40) and Native PGRF(1-44) and the results are set forth in following Table III: […]"}}}
{"smiles": "CC[C@H](C)[C@H](NC(=O)[C@H](C)NC(=O)[C@H](CC(=O)O)NC(=O)[C@H](C)NC(=O)[C@@H](N)Cc1ccc(O)cc1)C(=O)N[C@@H](Cc1ccccc1)C(=O)N[C@H](C(=O)N[C@@H](CC(N)=O)C(=O)N[C@@H](CO)C(=O)N[C@@H](Cc1ccc(O)cc1)C(=O)N[C@@H](CCCNC(=N)N)C(=O)N[C@@H](CCCCN)C(=O)N[C@H](C(=O)N[C@@H](CC(C)C)C(=O)NCC(=O)N[C@@H](CCC(N)=O)C(=O)N[C@@H](CC(C)C)C(=O)N[C@@H](CO)C(=O)N[C@@H](C)C(=O)N[C@@H](CCCNC(=N)N)C(=O)N[C@@H](CCCCN)C(=O)N[C@@H](CC(C)C)C(=O)N[C@@H](CC(C)C)C(=O)N[C@@H](CCC(N)=O)C(=O)N[C@@H](CC(=O)O)C(=O)N[C@H](C(=O)N[C@@H](CCSC)C(=O)N[C@@H](CO)C(=O)N[C@@H](CCCNC(=N)N)C(=O)N[C@@H](CCC(N)=O)C(=O)N[C@@H](CCC(N)=O)C(=O)NCC(=O)N[C@@H](CCC(=O)O)C(=O)N[C@@H](CO)C(=O)N[C@@H](CC(N)=O)C(=O)N[C@@H](CCC(N)=O)C(=O)N[C@@H](CCC(=O)O)C(=O)N[C@@H](CCCNC(=N)N)C(=O)NCC(=O)N[C@@H](C)C(=O)N[C@@H](CCCNC(=N)N)C(=O)N[C@@H](C)C(=O)N[C@@H](CCCNC(=N)N)C(=O)N[C@@H](CC(C)C)C(N)=O)[C@@H](C)CC)C(C)C)[C@@H](C)O", "note": "[synthetic PGRF(1-44)-amide, PGRF(1-44)-amide]", "values": [{"measurement": "GH-releasing activity when injected in laboratory animals (rats)", "setting": "[1]", "value": "shows the same type of GH-releasing activity as PGRF(1-40)"}, {"measurement": "potency compared with native PGRF(1-44) (further testing)", "setting": "[2]", "value": "substantially the same potency as native PGRF(1-44)"}]}
{"smiles": "CC[C@H](C)[C@H](NC(=O)[C@H](C)NC(=O)[C@H](CC(=O)O)NC(=O)[C@H](C)NC(=O)[C@@H](N)Cc1ccc(O)cc1)C(=O)N[C@@H](Cc1ccccc1)C(=O)N[C@H](C(=O)N[C@@H](CC(N)=O)C(=O)N[C@@H](CO)C(=O)N[C@@H](Cc1ccc(O)cc1)C(=O)N[C@@H](CCCNC(=N)N)C(=O)N[C@@H](CCCCN)C(=O)N[C@H](C(=O)N[C@@H](CC(C)C)C(=O)NCC(=O)N[C@@H](CCC(N)=O)C(=O)N[C@@H](CC(C)C)C(=O)N[C@@H](CO)C(=O)N[C@@H](C)C(=O)N[C@@H](CCCNC(=N)N)C(=O)N[C@@H](CCCCN)C(=O)N[C@@H](CC(C)C)C(=O)N[C@@H](CC(C)C)C(=O)N[C@@H](CCC(N)=O)C(=O)N[C@@H](CC(=O)O)C(=O)N[C@H](C(=O)N[C@@H](CCSC)C(=O)N[C@@H](CO)C(=O)N[C@@H](CCCNC(=N)N)C(=O)N[C@@H](CCC(N)=O)C(=O)N[C@@H](CCC(N)=O)C(=O)NCC(=O)N[C@@H](CCC(=O)O)C(=O)N[C@@H](CO)C(=O)N[C@@H](CC(N)=O)C(=O)N[C@@H](CCC(N)=O)C(=O)N[C@@H](CCC(=O)O)C(=O)O)[C@@H](C)CC)C(C)C)[C@@H](C)O", "note": "[Example VI, PGRF (1-37)-free acid]", "values": [{"measurement": "biological potency (additional testing)", "setting": "[2]; compared with PGRF (1-40)", "value": "very substantial biological potency"}]}
{"smiles": "CC[C@H](C)[C@H](NC(=O)[C@H](C)NC(=O)[C@H](CC(=O)O)NC(=O)[C@H](C)NC(=O)[C@@H](N)Cc1ccc(O)cc1)C(=O)N[C@@H](Cc1ccccc1)C(=O)N[C@H](C(=O)N[C@@H](CC(N)=O)C(=O)N[C@@H](CO)C(=O)N[C@@H](Cc1ccc(O)cc1)C(=O)N[C@@H](CCCNC(=N)N)C(=O)N[C@@H](CCCCN)C(=O)N[C@H](C(=O)N[C@@H](CC(C)C)C(=O)NCC(=O)N[C@@H](CCC(N)=O)C(=O)N[C@@H](CC(C)C)C(=O)N[C@@H](CO)C(=O)N[C@@H](C)C(=O)N[C@@H](CCCNC(=N)N)C(=O)N[C@@H](CCCCN)C(=O)N[C@@H](CC(C)C)C(=O)N[C@@H](CC(C)C)C(=O)N[C@@H](CCC(N)=O)C(=O)N[C@@H](CC(=O)O)C(=O)N[C@H](C(=O)N[C@@H](CCSC)C(=O)N[C@@H](CO)C(=O)N[C@@H](CCCNC(=N)N)C(=O)N[C@@H](CCC(N)=O)C(=O)N[C@@H](CCC(N)=O)C(=O)NCC(=O)N[C@@H](CCC(=O)O)C(=O)N[C@@H](CO)C(=O)N[C@@H](CC(N)=O)C(=O)N[C@@H](CCC(N)=O)C(=O)N[C@@H](CCC(=O)O)C(=O)N[C@@H](CCCNC(=N)N)C(=O)NCC(=O)N[C@@H](C)C(=O)O)[C@@H](C)CC)C(C)C)[C@@H](C)O", "note": "[Native PGRF (1-40)]", "values": [{"measurement": "GH secretion in vitro % of controls", "setting": "[2]; Table I, 12.5 femtomoles", "value": "234 ± 17 % of controls"}, {"measurement": "GH secretion in vitro % of controls", "setting": "[2]; Table I, 25 fmoles", "value": "351 ± 7 % of controls"}, {"measurement": "GH secretion in vitro % of controls", "setting": "[2]; Table I, 50 fmoles", "value": "528 ± 16 % of controls"}, {"measurement": "GH secretion in vitro % of controls", "setting": "[2]; Table I, 100 fmoles", "value": "720 ± 32 % of controls"}, {"measurement": "GH secretion in vitro % of controls", "setting": "[2]; Table I, 200 fmoles", "value": "748 ± 7 % of controls"}, {"measurement": "GH secretion in vitro % of controls", "setting": "[2]; Table III, 6.3 femtomoles", "value": "198 ± 5.9 % of controls"}, {"measurement": "GH secretion in vitro % of controls", "setting": "[2]; Table III, 12.5 femtomoles", "value": "270 ± 2.4 % of controls"}, {"measurement": "GH secretion in vitro % of controls", "setting": "[2]; Table III, 25.0 femtomoles", "value": "348 ± 3.4 % of controls"}, {"measurement": "GH secretion in vitro % of controls", "setting": "[2]; Table III, 50.0 femtomoles", "value": "466 ± 0.9 % of controls"}, {"measurement": "GH secretion in vitro % of controls", "setting": "[2]; Table III, 100.0 femtomoles", "value": "570 ± 17 % of controls"}, {"measurement": "GH secretion in vitro % of controls", "setting": "[2]; Table III, 200.0 femtomoles", "value": "579 ± 2.1 % of controls"}, {"measurement": "GH secretion in vitro % of controls", "setting": "[2]; Table III, 400.0 femtomoles", "value": "588 ± 10 % of controls"}, {"measurement": "GH-releasing activity", "setting": "[2]; peptides isolated from human islet cell tumor", "value": "exhibit GH-releasing activity"}]}
